Results from ChEMBL document CHEMBL1201862, “PubChem BioAssay data set” (2004).
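A five-concentration, 48-hour dose response in 96-well plates underlies each endpoint, interpolated linearly between surrounding concentrations. Abbreviation: GI50, concentration required for 50% inhibition of growth.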 Active and inactive are the calls of the source. Cut-off read from the data, not from the text of the source: active = GI50 up to about 1.1 µM and inactive = higher.

Key:
Assay in all cases: inhibition of tumour cell growth, NCI panel, 48 h
[1] = tested on: 786-0
[2] = tested on: A498
[3] = tested on: A549
[4] = tested on: HCC 2998
[5] = tested on: HOP-62
[6] = tested on: HOP-92
[7] = tested on: KM12
[8] = tested on: LOX IMVI
[9] = tested on: MDA-MB-435
[10] = tested on: MDA-N
[11] = tested on: MOLT-4
[12] = tested on: Malme-3M
[13] = tested on: NCI/ADR-RES
[14] = tested on: RXF 393
[15] = tested on: SF-295
[16] = tested on: SK-MEL-2
[17] = tested on: SW-620
[18] = tested on: TK-10
[19] = tested on: UACC-257
[20] = tested on: UACC-62

| SMILES | GI50 [1] | GI50 [2] | GI50 [3] | GI50 [4] | GI50 [5] | GI50 [6] | GI50 [7] | GI50 [8] | GI50 [9] | GI50 [10] | GI50 [11] | GI50 [12] | GI50 [13] | GI50 [14] | GI50 [15] | GI50 [16] | GI50 [17] | GI50 [18] | GI50 [19] | GI50 [20] |
| --- | --- | --- | --- | --- | --- | --- | --- | --- | --- | --- | --- | --- | --- | --- | --- | --- | --- | --- | --- | --- |
| CCC(C)NC(=S)N/N=C(\C)c1nc2cccnc2[nH]1 (configuration not stated) | 13.6 µM (inactive) | 57.3 µM (inactive) | 14.9 µM (inactive) | 13.4 µM (inactive) | 7.78 µM (inactive) | 7.18 µM (inactive) | 15.9 µM (inactive) | 10.9 µM (inactive) | 31.3 µM (inactive) | 47.4 µM (inactive) | 3.6 µM (inactive) | 6.73 µM (inactive) | 16.7 µM (inactive) | 15.6 µM (inactive) | 5.53 µM (inactive) | 5.92 µM (inactive) | 4.52 µM (inactive) | 12.3 µM (inactive) | 5.79 µM (inactive) | 6.11 µM (inactive) |
| O=[N+]([O-])c1ccc(/N=N\c2c(O)ccc3ccccc23)c([N+](=O)[O-])c1 | > 100 µM (inactive) | > 100 µM (inactive) | > 100 µM (inactive) | > 100 µM (inactive) | > 100 µM (inactive) | > 100 µM (inactive) | > 100 µM (inactive) | > 100 µM (inactive) | > 100 µM (inactive) | > 100 µM (inactive) | 70.6 µM (inactive) | > 100 µM (inactive) | > 100 µM (inactive) | > 100 µM (inactive) | > 100 µM (inactive) | > 100 µM (inactive) | > 100 µM (inactive) | > 90.4 µM (inactive) | > 100 µM (inactive) | > 100 µM (inactive) |
| CC(=O)NC1C(OCc2ccccc2)OC(CO)C(O)C1OCC(=O)N[C@@H](C)C(=O)N[C@H](CCC(=O)NCCCNc1c2ccccc2nc2cccc([N+](=O)[O-])c12)C(N)=O (some centres not stated) | < 0.0168 µM (active) | 0.0547 µM (active) | 0.0245 µM (active) | 0.0142 µM (active) | 0.08 µM (active) | 0.0295 µM (active) | 0.037 µM (active) | 0.0439 µM (active) | 0.0295 µM (active) | 0.023 µM (active) | 0.0269 µM (active) | 0.0292 µM (active) | 0.564 µM (active) | 0.0352 µM (active) | 0.15 µM (active) | 0.0404 µM (active) | 0.0172 µM (active) | 0.0253 µM (active) | 0.0448 µM (active) | 0.0321 µM (active) |
| CCCCCC(O)C(O)CCC[C@H](O)[C@H]1CC[C@H]([C@H]2CC[C@H]([C@H](O)CCCCCCCCCCCCC3=C[C@H](C)OC3=O)O2)O1 (some centres not stated) | 3.84 µM (inactive) | 2.65 µM (inactive) | 2.21 µM (inactive) | 11 µM (inactive) | 5.2 µM (inactive) | 23.4 µM (inactive) | 2.21 µM (inactive) | 1.21 µM (inactive) | 1.5 µM (inactive) | 2.83 µM (inactive) | 2.32 µM (inactive) | 11.9 µM (inactive) | 0.853 µM (active) | 7.33 µM (inactive) | 1.97 µM (inactive) | 1.76 µM (inactive) | 3.44 µM (inactive) | 2.86 µM (inactive) | 0.597 µM (active) | 1.71 µM (inactive) |
| CCC(C)C(N)C(=O)N/N=C\c1c2c(nc3ccccc13)-c1cc3c(c(=O)n1C2)COC(=O)[C@]3(O)CC (some centres not stated) | 0.0361 µM (active) | 0.205 µM (active) | 0.173 µM (active) | 0.36 µM (active) | 0.0113 µM (active) | 0.0803 µM (active) | 0.925 µM (active) | 0.0132 µM (active) | 0.468 µM (active) | 0.46 µM (active) | < 0.01 µM (active) | 0.438 µM (active) | 0.232 µM (active) | < 0.0284 µM (active) | 0.043 µM (active) | 1.08 µM (active) | 0.127 µM (active) | 4.02 µM (inactive) | 0.467 µM (active) | < 0.01 µM (active) |
| Cc1ccc2c(=O)c3c(O)c4c(cc3n(C)c2c1)OC(C)(C)C=C4 | > 10 µM (inactive) | > 10 µM (inactive) | > 10 µM (inactive) | > 10 µM (inactive) | > 10 µM (inactive) | > 10 µM (inactive) | > 10 µM (inactive) | > 10 µM (inactive) | > 10 µM (inactive) | > 10 µM (inactive) | > 10 µM (inactive) | > 10 µM (inactive) | > 10 µM (inactive) | > 10 µM (inactive) | > 10 µM (inactive) | > 10 µM (inactive) | > 10 µM (inactive) | > 10 µM (inactive) | > 10 µM (inactive) | > 10 µM (inactive) |
| Cc1cc(NC(=O)NC(=O)c2ccccc2N(C)C)ccc1Oc1ncc(Br)cn1 | 0.425 µM (active) | 0.29 µM (active) | 0.705 µM (active) | 0.53 µM (active) | 0.659 µM (active) | 1.3 µM (inactive) | 0.359 µM (active) | 0.369 µM (active) | 0.0424 µM (active) | 0.0302 µM (active) | 1.08 µM (active) | 0.425 µM (active) | 0.361 µM (active) | 0.656 µM (active) | 0.224 µM (active) | 0.733 µM (active) | 0.301 µM (active) | 4.51 µM (inactive) | 0.41 µM (active) | 0.301 µM (active) |
| O=c1[nH]nc(-c2ccccc2)c2[nH]c3c(c12)Cc1ccccc1-3 | 4.8 µM (inactive) | 2.35 µM (inactive) | 21.2 µM (inactive) | 6.82 µM (inactive) | 9.38 µM (inactive) | 1.67 µM (inactive) | < 0.0306 µM (active) | 6.11 µM (inactive) | 0.386 µM (active) | 0.38 µM (active) | 1.19 µM (inactive) | 1.08 µM (active) | 2.14 µM (inactive) | 6.19 µM (inactive) | 1.97 µM (inactive) | 1.43 µM (inactive) | 2.06 µM (inactive) | 7.59 µM (inactive) | – | 0.299 µM (active) |
| CC(=O)OC12CC(C)C3(O)C4C=C(C)C(=O)[C@@]4(O)CC(CO)=C[C@H]3C1C2(C)C (some centres not stated) | > 10 µM (inactive) | 0.41 µM (active) | 2.38 µM (inactive) | 4.21 µM (inactive) | > 100 µM (inactive) | 65.8 µM (inactive) | > 10 µM (inactive) | > 10 µM (inactive) | 3.67 µM (inactive) | 2.69 µM (inactive) | > 1000 µM (inactive) | > 10 µM (inactive) | > 10 µM (inactive) | > 100 µM (inactive) | – | > 10 µM (inactive) | 5.73 µM (inactive) | 2.34 µM (inactive) | > 10 µM (inactive) | 771 µM (inactive) |
| CC(=O)c1sc2c(c1OC(=O)c1cccs1)c(=O)n(-c1ccccc1)c(=S)n2-c1ccccc1 | 4.75 µM (inactive) | 4.71 µM (inactive) | 62.5 µM (inactive) | 39.4 µM (inactive) | 17 µM (inactive) | 5.24 µM (inactive) | 23 µM (inactive) | 4.84 µM (inactive) | 8.24 µM (inactive) | 5.5 µM (inactive) | 20.3 µM (inactive) | 2.8 µM (inactive) | 15.2 µM (inactive) | 3.86 µM (inactive) | 2.62 µM (inactive) | – | 22.4 µM (inactive) | 23.7 µM (inactive) | 11.7 µM (inactive) | 19.9 µM (inactive) |
